Assay results: patent US20130236922A1, “COPPER(I)-ION SELECTIVE FLUORESCENT PROBE, METHOD FOR PREPARING THE SAME, METHOD FOR DIAGNOSING MALIGNANT DISEASE AND DIAGNOSIS KIT USING THE PROBE” (priority 2011, published 2013)

Legend:
[1] = Solubility in HEPES buffer by the fluorescence method; type: physicochemical; conditions: aqueous buffer, HEPES buffer ([HEPES]=20 mM, pH 7.0)
Description: FIGS. 1A and 1B show normalized absorption (FIG. 1A) and fluorescence (FIG. 1B) spectra of the compound of Chemical Formula 2 in 1,4-dioxane, DMF, ethanol and HEPES buffer ([HEPES]=20 mM, pH 7.0). Light with a wavelength of 365 nm was used for excitation. Solubility of the compound of Chemical Formula 2 in HEPES buffer ([HEPES]=20 mM, pH 7.0) was measured as 4.0 μM by the fluorescence method disclosed in the literature (H. M. Kim and B. R. Cho, Acc. Chem. Res., 2009, 42, 863; M. K. Kim, C. S. Lim, J. T. Hong, J. H. Han, H. Y. Jang, H. M. Kim and B. R. Cho, Angew. Chem., Int. Ed., 2010, 49, 364; J. H. Lee, C. S. Lim, Y. S. Tian, J. H. Han and B. R. Cho, J. Am. Chem. Soc., 2010, 132, 1216; H. M. Kim and B. R. Cho, Chem. Asian J., 2011, 6, 58), which is sufficient for staining of cells.

[2] = One-photon and two-photon fluorescence titration with free copper(I) ions; type: binding; conditions: for Kd: HEPES 20 mM, thiourea 100 μM, pH 7.0, 1:1 binding model
Description: Absorption spectra were obtained using a Hewlett-Packard 8453 diode array spectrophotometer and fluorescence spectra were obtained using an Amico-Bowman series 2 luminescence spectrometer equipped with a 1-cm standard quartz cell. Fluorescence quantum yield was determined according to the literature using Coumarin 307 as reference compound (J. N. Demas, G. A. Crosby, J. Phys. Chem. 1971, 75, 991).
FIGS. 2A and 2B show one-photon absorption (FIG. 2A) and fluorescence (FIG. 2B) spectra for the compound of Chemical Formula 2 (2 μM) in the presence of free copper(I) ions (0-360 pM). Referring to FIGS. 2A and 2B, when copper(I) ions were added to the compound of Chemical Formula 2 in HEPES buffer, the fluorescence intensity increased gradually with the concentration of the copper(I) ions, without effect on the absorption spectrum. It may be because the metal ion forms a complex with the compound of Chemical Formula 2 and blocks photoinduced electron transfer (PeT). When the concentration of free copper(I) ion was 360 pM, the fluorescence intensity increased by about 4 times. A similar behavior was also observed for two-photon fluorescence spectra (see FIG. 3).
Dissociation constants (Kd) of the compound of Chemical Formula 2 for one-photon and two-photon processes were calculated from fluorescence titration curves (see FIG. 4) (HEPES buffer was used. [HEPES]=20 mM, [thiourea]=100 μM, pH=7.0).

[3] = Reactivity for copper(I) ions compared to competing metal ions (relative fluorescence intensity); conditions: compound 2 μM
Description: In FIG. 5, open bars show relative fluorescence intensity of the compound of Chemical Formula 2 (2 μM) resulting from reaction with Na^+, K^+, Mg^2+ and Ca^2+ (1 mM), Hg^2+ (2 μM) and other cations (50 mM) in 20 mM HEPES buffer (pH 7.0) before adding copper(I) ions, and filled bars show relative fluorescence intensity after adding 2 μM copper(I) ions (The cations indicated as numbers below the bars are as follows: (1) Cu^+; (2) Na^+; (3) K^+; (4) Mg^2+; (5) Ca^2+; (6) Mn^2+; (7) Fe^2+, (8) Co^2+; (9) Ni^2+; (10) Cu^2+; (11) Zn^2+; (12) Hg^2+).

[4] = One-photon fluorescence intensity at different pH's with and without copper(I) ions; conditions: compound 2 μM, HEPES buffer, 0 and 2 μM copper(I) ions, biologically significant pH ranges, excitation 365 nm
Excerpt: Light with a wavelength of 365 nm was used for excitation. […] Thus, from FIG. 5 and FIG. 6, it can be seen that the compound of Chemical Formula 2 according to the present disclosure is capable of detecting copper(I) ions with little interference by pH or other metal ion.

[5] = Two-photon fluorescence spectra in the presence of copper(I) ions (Fd value); type: physicochemical; conditions: at 750 nm, HEPES buffer, 2 μM copper(I) ions
Excerpt: Referring to FIG. 7, the two-photon spectrum of the compound of Chemical Formula 2-Cu^+ complex in HEPES buffer indicated an Fd value of 67 GM at 750 nm, more than 13-fold as compared to BODIPY (<5 GM 750 nm). Accordingly, it can be conjectured that a sample stained with the compound of Chemical Formula 2 gives a much brighter two-photon image than one stained with the BODIPY dye.

HeLa cells = experiment: Two-photon microscopy detection of copper(I) ions in cultured HeLa cells; type: cell-based; conditions: compound 2 μM, 37° C., 20 minutes
Excerpt: In order to investigate the applicability of the compound of Chemical Formula 2 in biological cells, copper(I) ions in cultured HeLa cells were detected by two-photon microscopy.

[6] = Dissociation constant for the multiphoton process of the zinc(II) ion-selective probe; type: binding; conditions: Zn(II) ions; read-out: Dissociation constant (KdTP) for the multiphoton process
Excerpt: Accordingly, the compound could be used to detect Zn(II) ions in the picomolar (pM) to nanomolar (nM) range by multiphoton microscopy.

Row | solubility [1] [µM] | Kd ([2]; read-out: Dissociation constant (Kd) for the copper(I) ion, one-photon process) [nM] | Kd ([2]; read-out: Dissociation constant (Kd) for the copper(I) ion, two-photon process) [nM] | Fd value of the Cu+ complex [5] [GM] | Kd [6] [nM] | SMILES | Increase of fluorescence intensity on adding copper(I) ions ([2]; free copper(I) ion 360 pM, compound 2 μM, HEPES buffer, one-photon) | Interference by Hg2+ ([3]; Hg2+ 2 μM, 20 mM HEPES pH 7.0) | Interference by competing metal ions Na+, K+, Mg2+, Ca2+, Mn2+, Fe2+, Co2+, Ni2+, Cu2+, Zn2+ ([3]; 20 mM HEPES pH 7.0, before and after adding 2 μM copper(I) ions) | Dependence of reactivity on pH of reaction solutions [4] | TPM image of labeled HeLa cells (HeLa cells)
1 | 4 | 0.016 ± 0.002 | 0.02 ± 0.003 | 67 | – | CCSCCSCCN(CCSCCSCC)c1ccc(NC(=O)CN(C)c2ccc3cc(C(C)=O)ccc3c2)cc1 [Chemical Formula 2] | about 4 times | only exception | not interfered | irrelevant of the pH | very bright TPM image
2 | – | – | – | – | 1.1 | CC(=O)c1ccc2cc(N(C)CC(=O)Nc3ccc(NCCN(Cc4ccccn4)Cc4ccccn4)cc3)ccc2c1 [Preparation Example 2] | – | – | – | – | –
